Experimental data from patent publication US20240307819A1, “ELECTROCHEMICAL TARGET SPECIES CAPTURE WITH A REDOX-ACTIVE AMINE” (Massachusetts Institute of Technology, priority 2021, published 2024).

Assays:
[1] = Electrochemical release of CO2 by constant-current oxidation in an H-cell (electron utilization); design: key to stable electron utilization: moles CO2 released per mole of electrons transferred; settings: for εCO2 (electron utilization during CO2 release): moles of CO2 released per moles of electrons, 0.1-0.2 M amine, constant current 50 mA
Description: FIGS. 5A-5F are related to electrochemical release of CO2. FIG. 5A is a schematic of the experimental setup for CO2 release. […] The amount of released CO2 (curve A) and electron utilization (curve B) are shown versus electric charge.
A bench-scale setup using an electrochemical H-cell was constructed and tested for the capture and release of CO2 (FIG. 5A). The system was equipped with an anion exchange membrane separating two 5 mL reaction chambers, carbon felt as a working electrode, and a stainless steel wire electrode for an arbitrary reaction in the counter chamber. […] Then, pure CO2 was bubbled into the solution for 10 min to complete the saturation of the electrochemically generated 1-Apyl radical dimer 3 solution. […] The electron utilization (εCO2) during CO2 release on oxidation represents the ratio between the moles of CO2 released and the moles of electrons transferred (equation 1): […]

[2] = CO2 absorption by electrochemically reduced amine solutions; settings: for CO2 capacity (absorption capacity): 1 mL aqueous 0.1-0.2 M amine, reduced, 15% CO2 inlet gas
Description: FIGS. 6A-6D are related to CO2 absorption dynamics in 1-APyl radical 2 solutions. […] 0.2 M 1-APyl radical 2 solution in 1 mL of water was contacted with the gas at a flow rate of 3.3 mL/min at room temperature. […] 1 mL of 0.04 M 1-APyl radical 2 solution was contacted with the gas at a flow rate of 3.3 mL/min at room temperature. […] A flow of 15% CO2 concentration balanced by nitrogen was used.
The changes in flow rate and concentration of CO2 were monitored by a CO2 flow meter and an FT-IR CO2 sensor, respectively.

[3] = Cyclic voltammetry of the redox-active amines; settings: for Potential gap / Ep^oxi vs Ag/AgCl / Ep^red vs Ag/AgCl: Table 1; for Potential gap: gap between Ep^oxi and Ep^red; for Ep^oxi vs Ag/AgCl / Ep^red vs Ag/AgCl: techniques of Example 1
Description: Potentials were recorded versus Ag/AgCl as a reference electrode.
Cyclic voltammetry (CV) was conducted to probe the mechanism of this process as depicted in FIG. 4E.
Each of structures 1-20 were assessed for electrochemical capture and release of carbon dioxide in accordance with the techniques described above in Example 1. Absorption capacities for carbon dioxide are reported in units of moles of CO2 per mole of amine. […] For the release experiments, 3.5 mL solutions of amine and captured carbon dioxide at concentrations ranging from 0.1-0.2 M of amine were electrochemically oxidized at a constant current of 50 mA while released CO2 was measured as a function of charge passed.

[4] = in water; cited from earlier work
Aqueous solubility = assay type: physicochemical; settings: Table 1, aqueous solution
[5] = Stability test of 1-APyl radical solution (oxygen sensitivity and nitrogen controls); assay type: physicochemical; settings: 0.2 M, 5 mL
Description: (§1) FIGS. 8A-8C are related to direct air capture and stability test of 1-APyl radical 2 solution. […] 0.1, 0.2, and 0.4 M 1-APyl radical 2 aqueous solutions (1 mL) were bubbled with air at a flow rate of 3.3 mL/min at room temperature. […] The 1-APyl radical 2 solutions (0.2 M, 5 mL) were bubbled with dioxygen for 1 and 30 days (curve shading matching the shading of the labels in the figure) at a flow rate of 10 mL/min followed by contact with pure CO2 for an additional 12 min. The 1-APyl radical 2 solutions were sealed under nitrogen for 1 and 30 days followed by contact with pure CO2 for 12 min for the control experiments.
To test the stability of the 1-APyl radical in air, a set of experiments was carried out (FIG. 8C). Exposure to pure dioxygen (10 mL/min) of the 1-APyl radical 2 solution (0.2 M, 5 mL) for 1 and 30 days (see corresponding curve in FIG. 8C) followed by saturation with pure CO2 provided 6.6% and 46% decrease, respectively, of the capacity of the system compared to the output for the freshly CO2-saturated solution (see corresponding curve in FIG. 8C). […] Although further studies for the stability under the various conditions are warranted, operation in the presence of oxygen remains feasible.

[6] = Direct capture of CO2 from ambient air, then electrochemical oxidation; settings: 0.2 M, 3.5 mL, bubbled with air 18 h at ca. 100 mL/min
Description: as §1
We next sought to expand the use of the 1-AP nitrate redox cycle to the direct capture of CO2 from ambient air (FIGS. 8A-8C). The 1-APyl radical dimer 3 solution (3.5 mL) was prepared by first reducing a 0.2 M 1-AP nitrate (1) solution, and then bubbling the solution with non-pretreated air for 18 h at a flow rate of ca. 100 mL/min (FIG. 8A). Electrochemical oxidation of the air-bubbled solution was carried out to evaluate the direct air capture efficiency. The system presented electron utilization during CO2 release of up to 0.78 with 36% cell capacity usage with the 0.2 M solution. […] Initial CO2 absorption rates from the ambient air were measured in 0.1, 0.2, and 0.4 M solutions of 1-APyl radical 2 (FIG. 8B). […]

[7] = Cyclic stability of electrochemical CO2 capture and release over 5 cycles
Description: FIGS. 7A-7D are related to cyclic stability of the electrochemical CO2 capture and release by 1-AP nitrate (1) redox system for 5 cycles.
The reversible capture and release of CO2 was tested over five cycles to evaluate the robustness of the 1-AP nitrate redox cycle (FIG. 7A-7D). The cyclic stability was evaluated with a 0.8 mmol amine solution and restricted to operate at 80% of the full capacity of the cell in order to minimize undesired side reactions. The gas output and CO2 fraction were monitored to show reproducible and stable capture and release of CO2 during five cycles under the applied current conditions. The gas release rate was steady at 0.75 mL/min, consistent with the release of one mole of CO2 per mole electrons transferred under steady current flow in each cycle.

[8] = 20 mM in water, 0.1 M potassium nitrate, nitrogen, platinum working electrode, 20 mV/s, room temperature

| Potential gap [3] [V] | Ep^oxi vs Ag/AgCl [3] [V] | Ep^red vs Ag/AgCl [3] [V] | Compound | εCO2 (electron utilization during CO2 release) ([1]; 3.5 mL) | CO2 capacity (absorption capacity) ([2]; 3.3 mL/min) | other results |
| --- | --- | --- | --- | --- | --- | --- |
| 1.96 | 1.52 | −0.44 | Cc1cc(C)c[n+](N)c1.[O-][Cl+3]([O-])([O-])[O-] [Entry 18] | – | – | – |
| 1.37 | 0.88 | −0.49 | NC(=O)c1cc[n+](N)cc1.O=[N+]([O-])[O-] [Entry 7] | 0.69 | 1.1 moles of CO2 per mole of amine | – |
| 1.47 | 1.04 | −0.43 | Cc1cccc(C)[n+]1N.[O-][Cl+3]([O-])([O-])[O-] [Entry 17] | – | – | – |
| 2.46 | 1.73 | −0.73 | COc1cccc[n+]1N.O=[N+]([O-])[O-] [Entry 16] | 0.76 | 1.05 moles of CO2 per mole of amine | – |
| 1.43 | 0.88 | −0.55 | N#Cc1cc[n+](N)cc1.O=[N+]([O-])[O-] [Entry 8] | 0.70 | 1.65 moles of CO2 per mole of amine | – |
| 1.41 | 0.85 | −0.56 | N[n+]1ccc(O)cc1 [Entry 9] | 0.32 | 0.95 moles of CO2 per mole of amine | – |
| 1.34 | 0.87 | −0.47 | CNc1cc[n+](N)cc1.O=[N+]([O-])[O-] [Entry 12] | 0.91 | 1.6 moles of CO2 per mole of amine | – |
| 1.73 | 1.03 | −0.70 | Nc1ccc[n+](N)c1 [Entry 15] | 0.72 | 1.1 moles of CO2 per mole of amine | – |
| 1.30 | 0.84 | −0.44 | COc1ccc[n+](N)c1.[O-][Cl+3]([O-])([O-])[O-] [Entry 14] | 0.41 | – | – |
| 1.47 | 1.00 | −0.47 | Cc1ccc[n+](N)c1.[O-][Cl+3]([O-])([O-])[O-] [Entry 13] | 0.83 | – | – |

More lines, now with the values behind:

| Compound | Potential gap [3] [V] | Ep^oxi vs Ag/AgCl [3] [V] | Ep^red vs Ag/AgCl [3] [V] | εCO2 (electron utilization during CO2 release) ([1]; 3.5 mL) | CO2 capacity (absorption capacity) ([2]; 3.3 mL/min) | other results |
| --- | --- | --- | --- | --- | --- | --- |
| Nc1cc[n+](N)cc1 [Entry 5] | 1.44 | 1.02 | −0.48 | 0.99 | 2.3 moles of CO2 per mole of amine | – |
| O=C(O)O [carbonic acid] | – | – | – | – | – | pKa [4]: approximately 6.8 |
| CC(C)(C)c1cc[n+](N)cc1.[O-][Cl+3]([O-])([O-])[O-] [Entry 3] | 1.31 | 0.83 | −0.48 | 0.52 | – | Low solubility (Observations) (Aqueous solubility): (<0.2M) |
| CN(C)c1cc[n+](N)cc1 [Entry 6] | 1.28 | 0.85 | −0.43 | 0.99 | 2.0 moles of CO2 per mole of amine | – |
| N[n+]1c2ccccc2nc2ccccc21 [Entry 20, amino-phenazinium] | – | – | – | – | – | solubility (Aqueous solubility; read-out: Low solubility (Observations)): < 10 mM |
| 1-aminopyridinyl (1-APyl) radical [1-APyl radical 2] | – | – | – | – | – | CO2 absorption rate compared with EDA and MEA ([2]; 0.2 M in 1 mL water, 15% CO2 balanced by nitrogen): comparable; constant CO2 capacity ([2]; 1, 4, 15 and 100% CO2 inlet gas streams, 3.3 mL/min, room temperature): 1.94 mole of CO2 per mole of amine; decrease of the capacity of the system ([5]; bubbled with nitrogen 10 mL/min, 30 days): 54%; decrease of the capacity of the system ([5]; pure dioxygen 10 mL/min, 1 day, vs freshly CO2-saturated solution): 6.6%; decrease of the capacity of the system ([5]; pure dioxygen 10 mL/min, 30 days): 46%; decrease of the capacity of the system ([5]; sealed under nitrogen, 1 day): 7.2%; decrease of the capacity of the system ([5]; sealed under nitrogen, 30 days): 22%; stability in water (from quasi-reversible CV wave) ([3]; water, room temperature): stable in water at room temperature |
| N[n+]1ccccc1 [1-AP nitrate, 1-aminopyridinium] | – | – | – | – | – | stable electron utilization ([1]; 1 M 1-AP nitrate solution, 3.5 mL, 100 mA): 1.25; capacity of the electrochemical CO2 release process ([1]; per g of 1-AP nitrate): 12.4 mmol/g; electron utilization ([1]; solution prepared from 0.2 M 1-AP nitrate, 3.5 mL, 50 mA): up to 1.08; cell capacity usage, direct air capture [6]: 36%; electron utilization during CO2 release, direct air capture ([6]; 50 mA): up to 0.78; gas release rate ([7]; 0.2 M, 0.8 mmol in 4 mL water, 50 mA, 80% of full capacity, each of 5 cycles): 0.75 mL/min; robustness over cycles ([7]; 5 cycles): no significant loss in performance; oxidative peak potential [3, 8]: −0.32 V vs. Ag/AgCl; reductive peak potential [3, 8]: −0.45 V vs. Ag/AgCl |
| COc1cc[n+](N)cc1.[O-][Cl+3]([O-])([O-])[O-] [Entry 4] | 1.75 | 1.05 | −0.70 | 0.70 | – | Low solubility (Observations) (Aqueous solubility): (<0.2M) |
| COC(=O)c1cc[n+](N)cc1.F[B-](F)(F)F [Entry 1] | – | – | −0.34 | – | – | – |
